Results on one molecule are retold here after patent US20230310352A1, “NOVEL COMPOSITIONS AND METHODS FOR THE TREATMENT OF LUNG FIBROSIS” (LAURENT PHARMACEUTICALS INC., priority 2020, published 2023).

Assay [1] concerns lung fibroblast-populated long microtissue. The experiment in a line: Lung fibroblast-populated long microtissue, model of traction bronchiectasis. The class given is cell-based, human. The source says: In a fibrotic lung, traction bronchiectasis occurs when small bronchial openings dilate due to traction force exerted by the surrounding fibrotic tissue. To model this unique fibrosis feature of the lung, stress concentrations were patterned to induce the dilation of tissue openings in the engineered microtissues described in Example 2. In order to further increase local stress levels, rigid micropillars were designed to support the long microtissue. In order to experimentally model the mechanical process of traction bronchiectasis, lung fibroblast-populated long microtissue was induced to fibrosis using TGF-β1 treatment (5 ng/ml). Continuous TGF-β1 treatment for 6 days induced increased expression of α-SMA and pro-collagen type 1 across the entire microtissue, in addition to dilated tissue openings around the micropillars. These effects were absent in untreated conditions. To examine the effects of fenretinide (2 μM and 4 μM doses) in inhibiting traction bronchiectasis, fenretinide was co-administered with TGF-β1 at the beginning of long microtissue culture and remained for 6 days. The unique geometry of the long microtissue allows tissue opening (hole) formation around micropillars under elevated contractile force generated by the differentiated myofibroblasts, mimicking the traction bronchiectasis. […] FIG. 9 presents the quantified opening area/total tissue area ratio.

The subject of assay [2] is Cftr.KO mice. To be noted: cited from earlier work.
For assay [3], the system named is bleomycin-induced lung fibrosis. Briefly: Intratracheal bleomycin mouse model of pulmonary fibrosis (28-day model). It counts as in vivo, C57BL/6N mice. To be noted: Day 28; oral once daily Day 7 to Day 28; fenretinide 10 mg/kg (as LAU-7b SDI), pirfenidone 100 mg/kg. The text has this:
Oral administration of a solid, amorphous dispersion formulation of fenretinide (LAU-7b SDI) was provided as a treatment for reduction of pulmonary fibrosis, in a mouse model of lung fibrosis induced via a single intratracheal administration of bleomycin, for 21 days. The LAU-7b SDI formulation was obtained by spray drying and contains fenretinide in amorphous form in a solid dispersion comprising a matrix polymer, based on the following formula: 40% fenretinide, 59.6% povidone (KOLLIDON® 30), 0.24% butylated hydroxyanisole (BHA) and 0.16% butylated hydroxytoluene (BHT).
Male C57BL/6N mice from Charles River Laboratories, 10-12 weeks of age, weighing around 20-25 g, at the time of their enrolment, received 50 μL of bleomycin sulfate (2.0 mg/kg) by a single intratracheal instillation on Day 1 of the study to induce lung fibrosis. The sham group received an equivalent volume of 0.9% saline. On Day 7 postbleomycin instillation, the animals were randomized in groups of animals based on their body weight loss and enhanced pause airway resistance estimate (PenH value), while the sham group had 6 mice. Oral dosing by gavage (10 mL/kg) with the vehicle (sham and BLM control groups), the test articles (fenretinide 10 mg/kg), and the reference compound (pirfenidone 100 mg/kg) were administered once daily starting from Day 7 to Day 28. Two hours following the last dose on Day 28, all mice were sacrificed, the lungs of each mouse harvested, flushed with 0.9% NaCl and inflated with 10% neutral buffered formalin solution. After embedding and mounting of the lung tissue (transversal slices of 5 μm thickness), the histology slides were stained with hematoxylin/eosin for the Ashcroft score evaluation by a treatment-blinded pathologist and with Sirius red staining for automated fibrosis quantification (Biocelvia, France).
The key endpoints evaluated in this study were Ashcroft score, pulmonary foci and collagen content obtained by histological assessment of the lung tissue at the end of the study. Statistical analysis was made on normally distributed data by one-way ANOVA followed by multiple comparisons (Fisher's LSD post hoc test) to assess the difference between the groups, using Graph Pad Prism Software version 8.0 (San Diego, CA, USA). Differences were considered statistically significant when P values were p<0.05 (*), or p<0.01 (**) or p<0.001 (***).
Ashcroft scale for the evaluation of bleomycin-induced lung fibrosis is the analysis of stained histological samples by visual assessment. The Ashcroft score was assessed in lung tissue collected on Day 28 by treatment-blinded pathologist on H&E stained lung tissue histology slides (3 cross sections/animal) and using the modified Ashcroft scale. Briefly, each lung section was scanned at a magnification of x100 (H&E staining), read by a blinded examiner, and graded from 0 (normal lung) to 8 (total fibrotic obliteration of the field). Criteria for grading lung fibrosis in Ashcroft scale are as follows: Grade 0=normal lung; Grade 1=minimal fibrous thickening of alveolar or bronchiolar walls; Grade 3=moderate thickening of walls without obvious damage to lung architecture; Grade 5=increased fibrosis with definitive damage to lung structure and formation of fibrous bands or small fibrous masses; Grade 7=severe distortion of structure and large fibrous area; Grade 8=total fibrous obliteration of lung fields. The mean value of the grades obtained for each of the three sections was used as the Ashcroft score. Ashcroft score, using the modified scale, is a reliable and reproducible method of visual quantification of bleomycin induced lung fibrosis in H&E stained histological lung sections based on description of the general morphology of alveolar septa and lung structure. […]

Turning to `CC1=C(/C=C/C(C)=C/C=C/C(C)=C/C(=O)Nc2ccc(O)cc2)C(C)(C)CCC1` [fenretinide, 4-hydroxyphenyl retinamide], in assay [1] (TGF-β1 5 ng/ml, 6 days, 4 μM), the “expression level of α-SMA in the long microtissue” value is “strongly inhibited” and the “pro-collagen expression in the long microtissue” value is reported as “a similar trend”. Further, the “tissue openings around micropillars (traction bronchiectasis)” value in assay [1] (co-administered with TGF-β1 5 ng/ml for 6 days, 2 μM and 4 μM) is listed as “tissue openings remained small”. For the same molecule, in assay [2], the “levels of DHA and AA and sphingolipids imbalance in the lungs and plasma” value is reported as “correct the levels”; the lung inflammation entry is listed as “reduction”; the “pulmonary load of Pseudomonas aeruginosa” value is given as “significant decrease”. Also, in assay [3], the “Ashcroft score vs BLM control” value was “reduced significantly (p<0.05)”; the “percentage of collagen content in lung tissue, automated Sirius red analysis, vs BLM control” value is “significantly reduced”; the “percentage of pulmonary foci (fibrotic tissue), automated Sirius red analysis, vs BLM control” value was “significant reduction”.
